Experimental data reported in article PMC9636434, “Discovery of small molecule agonists of the Relaxin Family Peptide Receptor 2” (Communications Biology, 2022).
“And” between values parts separate entries of the source, which are not always exact repeats. Equal entries are not always repeated. Where two headings read alike, the source gives them in different places.

What was measured:
human PTHR1 = target: T1, human PTHR1 (Homo sapiens, UniProt Q03431); experiment: HitHunter cAMP XS+ assay, cAMP Hunter cell line PTHR1; assay type: cell-based; conditions: for RLU: replicates (1),(2)
T1 sequence (Q03431 27-593): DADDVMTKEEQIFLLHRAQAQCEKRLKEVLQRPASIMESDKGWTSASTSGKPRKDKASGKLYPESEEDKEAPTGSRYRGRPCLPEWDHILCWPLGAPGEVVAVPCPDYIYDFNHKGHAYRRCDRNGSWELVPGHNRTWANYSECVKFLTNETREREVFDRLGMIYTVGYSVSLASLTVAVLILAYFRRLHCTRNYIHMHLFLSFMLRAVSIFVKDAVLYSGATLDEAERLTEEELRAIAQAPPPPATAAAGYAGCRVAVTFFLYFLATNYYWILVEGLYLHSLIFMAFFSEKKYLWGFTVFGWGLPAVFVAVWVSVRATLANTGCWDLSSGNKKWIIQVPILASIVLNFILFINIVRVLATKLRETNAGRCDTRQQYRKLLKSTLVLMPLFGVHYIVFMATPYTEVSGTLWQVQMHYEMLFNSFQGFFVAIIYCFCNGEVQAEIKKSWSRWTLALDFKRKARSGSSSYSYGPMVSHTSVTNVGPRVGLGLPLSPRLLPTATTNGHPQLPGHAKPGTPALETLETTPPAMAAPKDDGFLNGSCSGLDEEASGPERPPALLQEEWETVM
From the text: Results are reported as raw RLU values and represent the
mean ± SEM of 2 technical replicates.

[1] = Pharmacokinetic study, 3 mg/kg IV, 10 mg/kg PO and 10 mg/kg PO QD*3, plasma, liver and bone; assay type: in vivo, mouse; conditions: for Plasma concentration: individual values (1)-(3)
Procedure: The concentration of compound in plasma, liver, and long bones was detected using liquid chromatography tandem mass spectrometry (LC-MS/MS). Samples were collected after a single intraperitoneal (IP) administration at 30 mg/kg, a single intravenous (IV) administration at 3 mg/kg, a single oral (PO) administration at 10 mg/kg, and a daily PO administration for 3 consecutive days at 10 mg/kg. The compound was formulated in 75% PEG300 + 25% of 40% aq. HPBCD for IV and PO administration and in 60% Phosal + 40% PEG300 for IP administration. All tissue samples were homogenized in water at a tissue weight to water volume ratio 1:3.
IV administration, one 10 mg/kg PO administration and three 10 mg/kg PO administrations (QD*3). a Plasma, b liver and c bone profiles in female mice. The actual concentration (ng/g) is the detected value (ng/mL) multiplied by 4. Drug vehicle is 25% aq. 40% HP-b-CD - 75% PEG300. 3 mice were used per time point. Results are expressed as the mean ± SEM.

[2] = female, C57BL/6J, mouse, bone (long bones), iv, 3 mg/kg, bone, IV, individual animals, read-out: Bone 6641 IV concentration
[3] = female, C57BL/6J, mouse, bone (long bones), po, 10 mg/kg, bone, PO (QD*3), individual animals, read-out: Bone 6641 PO (QD*3) concentration

O=C1Nc2ccc(-c3cc(C(F)(F)F)cc(C(F)(F)F)c3)cc2C(=O)N2CCN(C(=O)COc3ccc(OC(F)(F)F)cc3I)C[C@@H]12 [compound 6641]
cAMP response through PTHR1 (human PTHR1; Hit Hunter cAMP assay): does not activate | RLU (human PTHR1; Log [M] -4.70): 1080 RLU | RLU (human PTHR1; Log [M] -5.18): 1000 RLU | RLU (human PTHR1; Log [M] -5.65): 960 RLU | RLU (human PTHR1; Log [M] -6.13): 1040 RLU | RLU (human PTHR1; Log [M] -6.61): 920 RLU and 960 RLU | RLU (human PTHR1; Log [M] -7.08): 1200 RLU and 1040 RLU | RLU (human PTHR1; Log [M] -7.56): 1000 RLU and 880 RLU | RLU (human PTHR1; Log [M] -8.04): 1000 RLU and 920 RLU | RLU (human PTHR1; Log [M] -8.52): 920 RLU and 1000 RLU | RLU (human PTHR1; Log [M] -8.99): 800 RLU | accumulation ([1]; 10 mg/kg PO daily for 3 consecutive days): no accumulation | half-life ([1]; C57BL/6J, mouse, in vivo, female mice, depending on the route of administration (3 mg/kg IV, 10 mg/kg PO)): 4 to 6.5 h | bioavailability ([1]; C57BL/6J, mouse, plasma, 10 mg/kg PO, female mice): 25 to 31% | maximum concentration in bone tissue ([1]; IV administration, 3 mg/kg): 1072 ng/g | Plasma concentration ([1]; IV, Time 0.083 h): 2772 ng/mL and 2884 ng/mL | Plasma concentration ([1]; IV, Time 0.25 h): 1472 ng/mL and 1152 ng/mL | Plasma concentration ([1]; IV, Time 0.5 h): 786 ng/mL and 964 ng/mL | Plasma concentration ([1]; IV, Time 1 h): 583 ng/mL and 464 ng/mL | Plasma concentration ([1]; IV, Time 3 h): 259 ng/mL and 205 ng/mL | Plasma concentration ([1]; IV, Time 7 h): 84.8 ng/mL and 68.4 ng/mL | Plasma concentration ([1]; IV, Time 24 h): 4.08 ng/mL and 5.43 ng/mL | Plasma concentration ([1]; IV, Time 48 h, N/A: Below detection level): 0.868 ng/mL | Plasma concentration ([1]; PO (QD*3), Time 0.083 h): 7.56 ng/mL and 5.2 ng/mL | Plasma concentration ([1]; PO (QD*3), Time 0.25 h): 57.1 ng/mL and 50.6 ng/mL | Plasma concentration ([1]; PO (QD*3), Time 0.5 h): 185 ng/mL and 245 ng/mL and 104 ng/mL | Plasma concentration ([1]; PO (QD*3), Time 1 h): 484 ng/mL and 346 ng/mL | Plasma concentration ([1]; PO (QD*3), Time 3 h): 344 ng/mL | Plasma concentration ([1]; PO (QD*3), Time 7 h): 125 ng/mL and 179 ng/mL | Plasma concentration ([1]; PO (QD*3), Time 24 h): 3.9 ng/mL and 5.49 ng/mL | Plasma concentration ([1]; PO (QD*3), Time 48 h, N/A: Below detection level): 1 ng/mL | maximum concentration in bone tissue ([1]; PO administration, 10 mg/kg): 170 to 300 ng/g | Plasma concentration ([1]; PO, Time 0.25 h): 32.7 ng/mL and 59.5 ng/mL | Plasma concentration ([1]; PO, Time 0.5 h): 159 ng/mL and 69 ng/mL and 120 ng/mL | Plasma concentration ([1]; PO, Time 1 h): 406 ng/mL and 323 ng/mL | Plasma concentration ([1]; PO, Time 3 h): 247 ng/mL and 204 ng/mL | Plasma concentration ([1]; PO, Time 7 h): 141 ng/mL and 122 ng/mL | Plasma concentration ([1]; PO, Time 24 h): 8.08 ng/mL and 4.6 ng/mL | concentration at 0.5 h ([1]; female, C57BL/6J, mouse, bone (long bones), 10 mg/kg, bone, PO, individual animals, read-out: Bone 6641 PO concentration): 20.3 ng/g | concentration at 0.083 h ([1]; female, C57BL/6J, mouse, bone (long bones), iv, 3 mg/kg, bone, IV, 0.083 h, individual animals, read-out: Bone 6641 IV concentration): 1180 ng/g | concentration at 0.25 h [1, 2]: 1100 ng/g | concentration at 0.5 h [1, 2]: 711 ng/g | concentration at 1 h ([1]; female, C57BL/6J, mouse, bone (long bones), iv, 3 mg/kg, bone, IV, 1 h, individual animals, read-out: Bone 6641 IV concentration): 632 ng/g | concentration at 3 h ([1]; female, C57BL/6J, mouse, bone (long bones), iv, 3 mg/kg, bone, IV, 3 h, individual animals, read-out: Bone 6641 IV concentration): 337 ng/g | concentration at 7 h ([1]; female, C57BL/6J, mouse, bone (long bones), iv, 3 mg/kg, bone, IV, 7 h, individual animals, read-out: Bone 6641 IV concentration): 87.9 ng/g | concentration at 48 h ([1]; female, C57BL/6J, mouse, bone (long bones), iv, 3 mg/kg, bone, IV, 48 h, individual animals, N/A: Below detection level, read-out: Bone 6641 IV concentration): 3.84 ng/g | concentration at 0.25 h [1, 3]: 19.5 ng/g | concentration at 0.5 h [1, 3]: 54.2 ng/g
